Experimental data taken from US8048915B2, “Biologically active complex” (BioMas Ltd., priority 2001, dated 2011).
“And” between values parts separate entries of the source, which are not always exact repeats. Equal entries are not always repeated. Where two headings read alike, the source gives them in different places.

What was measured:
IL-2 receptors = assay: IL-2 receptor sites on human mononuclear cells, fluoresceinated antibody; assay type: cell-based; conditions: 1 μg/ml; 24 hours incubation
Experimental: This example provides an assay to detect the presence of receptor sites for IL-2. […] The cells were washed twice with PBS and then incubated with a specific fluoresceinated antibody against IL-2 receptors as described in Uchiyama et al, J. Immunol.

IL-2 [1] = test system: IL-2
IL-2 [2] = test system: IL-2; remark: listed apart in the source
Experimental: The complexes were administered in these dilutions, as drinking water, to male Balb-C mice, 6-8 weeks of age over a 4 day period. The exact amount of liquid intake was recorded daily. […] The cells were incubated at a concentration of 10^7 cells/ml in enriched RPMI containing 2 μg/ml of con-A for 24 hours at 37° C. The supernatants were collected and tested for IL-2 content.

IL-2 [3] = conditions: 10^7 viable cells/ml
Experimental: (§1) Spleens were removed from 15, male Balb-c mice 6 to 8 weeks of age. The spleen cells were pushed through stainless steel 60 mesh (U.S. Standard) nets resting in 5 mm Petri dishes containing PBS in order to separate the cells. The cells were then collected into centrifuge tubes and spun at 1000 rpm for 10 minutes. The supernatant was discarded and cells were treated with 5 ml of hypotonic buffer (0.15M NH4Cl; 0.01M KHCO3 dissolved in double distilled water, pH 7.2) for exactly two minutes. Thereafter, PBS was added to the cells and the test tubes were centrifuged for 10 minutes at 1000 rpm. The cells were rinsed twice and counted in a hemocytometer using trypan blue to test for viability. The cells were brought to a concentration of 10^7viable cells/ml.

[4] = test system: colony stimulating factor (CSF)
Experimental: as §1

[5] = test system: IL-2 receptors of human mononuclear cells; assay: Induction of IL-2 receptors of human mononuclear cells (proliferation with recombinant IL-2, 3H thymidine uptake); assay type: cell-based
Experimental: Human MNC were brought to a concentration of 10^6 cells/ml. RPMI+10% FCS. Aliquots of 0.2 ml. were placed in duplicate wells of microdishes and plates were incubated at 37° C. for 24 hrs. […] Plates were further incubated for 48 hrs and labeled with ^3H thymidine 24 hrs before harvesting. The proliferation was measured by ^3HT uptake as described by Gillis et al, J. Immunol. […] The results are expressed in counts per minute.

IL-2 [6] = conditions: 72 hours culture, 50% supernatant on CTLD cells
From the text: Culture supernatants were collected, centrifuged and tested for IL-2 activity by using 50% of the volume of the supernatant assaying their ability to support the proliferation of the IL-2 dependent cell line CTLD.

mice = conditions: 6 week old mice; preliminary
mouse macrophages = assay: Survival of mouse macrophage monolayer incubated with complex
Experimental: All cultures were then infected with 10^4 PFU/plate. After 72 h incubation the supernatants were collected and the virus was titrated against Vera cells.

human mononuclear cells = assay: Proliferation of human mononuclear cells (Example 14); assay type: cell-based; conditions: 72 hours + 24 hours label, listed as Ex. 1
Experimental: Human mononuclear cells were obtained by layering heparinized blood over a Ficoll/Hypaque gradient. The mononuclear cells were resuspended in enriched RPMI, rinsed three times and brought to a concentrations of 5×10^5cells/ml enriched RPMI. Varying concentrations of the complexes of Ex. 1 and Ex. 7(a), ranging from 0.005 μg to 5 μg/cell mixture were added to the cells. Aliquots of 0.2 ml of each sample were placed in wells of microplates (triplicates).

[7] = test system: Ha-Ras transformed NIH-3T3 cells; assay: Colony growth of Ha-Ras transformed NIH-3T3 cells; assay type: cell-based
Experimental: 5×10^2 cells were plated per 60 mm dish and incubated with different concentrations (0.005-5 μg/ml) of the complex in PBS. A week later, the cells were stained with Gimsa and clones were counted. Similar experiments were conducted using V-mos transformed NIH-3T3 cells, and also using Ph2TeCl2 and Ph3TeCl, with both types of transformed cells.

[8] = 1 μg/ml H2O as drinking water over 4 days
[9] = 10 μg/ml H2O as drinking water over 4 days
[10] = 5 pg (as starting material of Preparation 1)
[11] = 50 pg (as starting material of Preparation 1)
[12] = 500 pg (as starting material of Preparation 1)
[13] = 5 ng (as starting material of Preparation 1)
[14] = 50 ng (as starting material of Preparation 1)
[15] = 500 ng (as starting material of Preparation 1)
[16] = 5 μg (as starting material of Preparation 1)
[17] = 50 μg (as starting material of Preparation 1)

Cl[Te]1(Cl)(Cl)OCCO1.N [Example 1, equimolar complex of TeO2 and ethylene glycol, NH4Cl salt]
cells positive for IL-2 receptors (IL-2 receptors): 20% | IL-2 production (IL-2 [1]; NORMAL subjects, PHA +, 5 μg 0.2 ml PBS): 30.4 CPM × 10^−3 and 38.9 CPM × 10^−3 and 36.4 CPM × 10^−3 | IL-2 production (IL-2 [1]; NORMAL subjects, PHA +, 1:50 PBS dilution of 5 μg/0.2 ml): 38.9 CPM × 10^−3 and 53.5 CPM × 10^−3 and 48.2 CPM × 10^−3 | IL-2 production (IL-2 [1]; NORMAL subjects, PHA +, 1:100 PBS dilution of 5 μg/0.2 ml): 54.2 CPM × 10^−3 and 44.8 CPM × 10^−3 and 38.6 CPM × 10^−3 | IL-2 production (IL-2 [1]; NORMAL subjects, PHA +, 1:200 PBS dilution of 5 μg/0.2 ml): 49.8 CPM × 10^−3 and 38.3 CPM × 10^−3 and 38.6 CPM × 10^−3 | IL-2 production (IL-2 [1]; NORMAL subjects, PHA −, 5 μg 0.2 ml PBS): 2.1 CPM × 10^−3 and 2.3** CPM × 10^−3 | IL-2 production (IL-2 [1]; NORMAL subjects, PHA −, 1:50 PBS dilution of 5 μg/0.2 ml): 52.2 CPM × 10^−3 and 50.8 CPM × 10^−3 and 43.6 CPM × 10^−3 | IL-2 production (IL-2 [1]; NORMAL subjects, PHA −, 1:100 PBS dilution of 5 μg/0.2 ml): 50.3 CPM × 10^−3 and 46.1 CPM × 10^−3 and 38.4 CPM × 10^−3 | IL-2 production (IL-2 [1]; NORMAL subjects, PHA −, 1:200 PBS dilution of 5 μg/0.2 ml): 47.1 CPM × 10^−3 and 31.3 CPM × 10^−3 and 30.1 CPM × 10^−3 | IL-2 production (IL-2 [1]; SLE patients, PHA +, 5 μg 0.2 ml PBS): 6.3 CPM × 10^−3 and 8.2 CPM × 10^−3 and 4.1 CPM × 10^−3 | IL-2 production (IL-2 [1]; SLE patients, PHA +, 1:50 PBS dilution of 5 μg/0.2 ml): 24.2 CPM × 10^−3 and 28.1 CPM × 10^−3 and 23.8 CPM × 10^−3 | IL-2 production (IL-2 [1]; SLE patients, PHA +, 1:100 PBS dilution of 5 μg/0.2 ml): 19.7 CPM × 10^−3 and 24.0 CPM × 10^−3 and 20.2 CPM × 10^−3 | IL-2 production (IL-2 [1]; SLE patients, PHA +, 1:200 PBS dilution of 5 μg/0.2 ml): 15.4 CPM × 10^−3 and 18.6 CPM × 10^−3 and 16.8 CPM × 10^−3 | IL-2 production (IL-2 [1]; SLE patients, PHA −, 5 μg 0.2 ml PBS): 2.0 CPM × 10^−3 and 2.4 CPM × 10^−3 | IL-2 production (IL-2 [1]; SLE patients, PHA −, 1:100 PBS dilution of 5 μg/0.2 ml): 32.1 CPM × 10^−3 and 35.1 CPM × 10^−3 and 18.1 CPM × 10^−3 | IL-2 content, cpm (IL-2 [2]; [8]): 44500 cpm | Percent increase as compared to control (IL-2 [2]; [8]): +35% | IL-2 content, cpm (IL-2 [2]; [9]): 49179 cpm | Percent increase as compared to control (IL-2 [2]; [9]): +50% | inducing lymphokine production when given orally (IL-2 [2]; orally in an aqueous diluent): active | IL-2 (IL-2 [3]; [10]): 12,000 cpm | IL-2 (IL-2 [3]; [11]): 38,000 cpm | IL-2 (IL-2 [3]; [12]): 30,000 cpm | IL-2 (IL-2 [3]; [13]): 15,000 cpm | IL-2 (IL-2 [3]; [14]): 6,000 cpm | IL-2 (IL-2 [3]; [15]): 5,000 cpm | IL-2 (IL-2 [3]; [16]): 5,000 cpm | IL-2 (IL-2 [3]; [17]): 5,000 cpm | CSF [4, 10]: 140 colonies/dish | CSF [4, 11]: 260 colonies/dish | CSF [4, 12]: 175 colonies/dish | CSF [4, 13]: 120 colonies/dish | CSF [4, 14]: 75 colonies/dish | CSF [4, 15]: 25 colonies/dish | CSF [4, 16]: 5 colonies/dish | CSF [4, 17]: 2 colonies/dish | proliferation, 3HT uptake ([5]; Test A, 1 μg/ml, listed as Ex. 1): 28625 counts per minute and 27593 counts per minute | proliferation, 3HT uptake ([5]; Test A, 1 × 10^−3 μg/ml, listed as Ex. 1): 3652 counts per minute and 5055 counts per minute | proliferation, 3HT uptake ([5]; Test A, 1 × 10^−4 μg/ml, listed as Ex. 1): 3558 counts per minute and 4047 counts per minute | proliferation, 3HT uptake ([5]; Test A, 1 × 10^−5 μg/ml, listed as Ex. 1): 2474 counts per minute and 4063 counts per minute | proliferation, 3HT uptake ([5]; Test A, 5 × 10^−1 μg/ml, listed as Ex. 1): 120755 counts per minute and 105943 counts per minute | proliferation, 3HT uptake ([5]; Test A, 7 × 10^−1 μg/ml, listed as Ex. 1): 164538 counts per minute and 115195 counts per minute | proliferation, 3HT uptake ([5]; Test B, 1 μg/ml): 23488 counts per minute | proliferation, 3HT uptake ([5]; Test B, 1 × 10^−2 μg/ml): 6057 counts per minute | proliferation, 3HT uptake ([5]; Test B, 1 × 10^−3 μg/ml): 5865 counts per minute | proliferation, 3HT uptake ([5]; Test B, 1 × 10^−4 μg/ml): 4960 counts per minute | proliferation, 3HT uptake ([5]; Test B, 1 × 10^−5 μg/ml): 7155 counts per minute | proliferation, 3HT uptake ([5]; Test B, 5 × 10^−1 μg/ml): 66910 counts per minute | proliferation, 3HT uptake ([5]; Test B, 5 × 10^−2 μg/ml): 5390 counts per minute | proliferation, 3HT uptake ([5]; Test B, 7 × 10^−1 μg/ml): 17620 counts per minute | IL-2 activity, Counts per minute (IL-2 [6]; 1 ng): 11,000 Counts per minute | IL-2 activity, Counts per minute (IL-2 [6]; 10 ng): 1,500 Counts per minute | IL-2 activity, Counts per minute (IL-2 [6]; 1 μg): 250 Counts per minute | IL-2 activity, Counts per minute (IL-2 [6]; 100 μg): 280 Counts per minute | LD50 (mice): 300 μg/25 g of body weight | state of macrophages after 24 h incubation (mouse macrophages; 1 μg and 0.1 μg (others)): remained unaffected | state of macrophages after 24 h incubation (mouse macrophages; 5 μg): died | % Survival (fibrosarcoma cells; 10 μg IP at intervals, 4 days after inoculation with tumor cells): 100% | % Survival (fibrosarcoma cells; 10 μg IP at intervals, 9 days after inoculation with tumor cells): 100% | % Survival (fibrosarcoma cells; 10 μg IP at intervals, 23 days after inoculation with tumor cells): 100% | % Survival (fibrosarcoma cells; 10 μg IP at intervals, 30 days after inoculation with tumor cells): 100% | % Survival (fibrosarcoma cells; 10 μg IP at intervals, 37 days after inoculation with tumor cells): 100% | % Survival (fibrosarcoma cells; 39 days after inoculation with tumor cells, start of increased dosage regimen): 100% | % Survival (fibrosarcoma cells; 41 days after inoculation, increased dosage regimen from day 39): 100% | % Survival (fibrosarcoma cells; 43 days after inoculation, increased dosage regimen from day 39): 100% | % Survival (fibrosarcoma cells; 46 days after inoculation, increased dosage regimen from day 39): 80% | % Survival (fibrosarcoma cells; 48 days after inoculation, increased dosage regimen from day 39): 80% | % Survival (fibrosarcoma cells; 50 days after inoculation, increased dosage regimen from day 39): 80% | % Survival (fibrosarcoma cells; 53 days after inoculation, increased dosage regimen from day 39): 60% | % Survival (fibrosarcoma cells; 60 days after inoculation, increased dosage regimen from day 39): 40% | % Survival (fibrosarcoma cells; 67 days after inoculation, increased dosage regimen from day 39): 20% | % Survival (fibrosarcoma cells; 68 days after inoculation, increased dosage regimen from day 39): 0% | mortality (fibrosarcoma cells; group (b), until just after the increased dosage regimen (day 39)): ^1Day 39 marked the start of an increased dosage regimen to determine the toxicity of the complex of Example 1. The mortality results for group (b) were 0% until just after the increased dosage regimen. | proliferation of human mononuclear cells (3H methyl-thymidine) (human mononuclear cells; 5 μg/ml): 5008 and 5182 | proliferation of human mononuclear cells (3H methyl-thymidine) (human mononuclear cells; 1 × 10^−5 μg/ml): 3218 and 2442 | number of colonies / growth compared with control ([7]; 0.005-5 μg/ml in PBS, one week, clones counted): major reduction in the number of colonies | concentration giving the maximum effect (inhibition) ([7]; 0.005-5 μg/ml tested): 0.05 µg/mL
